Patent publication US10947284B2, “Fusion molecules” (Pieris Pharmaceuticals GMBH, priority 2015, dated 2021)

Tests used:
[1] = target: T1, Fusion molecule SEQ ID NO: 134 (hNGAL muteins SEQ ID NOs: 36, 16, 53 and 62) (Homo sapiens, UniProt P80188, A60T/C107S/D97H, form not given/K145I/K154W/K93R/L123T/L56V/L90R/N85D/Q69G/R101D/R92I/S147R/S88D/T74A/W99Y/Y126Q/Y152I/Y72N); assay: Surface plasmon resonance (Biacore T200); assay type: binding; conditions: for binding: SPR
T1 construct: made in house; host or cells: HEK293
T1 sequence (P80188 with tags, fused parts or gaps with the stated changes, form open): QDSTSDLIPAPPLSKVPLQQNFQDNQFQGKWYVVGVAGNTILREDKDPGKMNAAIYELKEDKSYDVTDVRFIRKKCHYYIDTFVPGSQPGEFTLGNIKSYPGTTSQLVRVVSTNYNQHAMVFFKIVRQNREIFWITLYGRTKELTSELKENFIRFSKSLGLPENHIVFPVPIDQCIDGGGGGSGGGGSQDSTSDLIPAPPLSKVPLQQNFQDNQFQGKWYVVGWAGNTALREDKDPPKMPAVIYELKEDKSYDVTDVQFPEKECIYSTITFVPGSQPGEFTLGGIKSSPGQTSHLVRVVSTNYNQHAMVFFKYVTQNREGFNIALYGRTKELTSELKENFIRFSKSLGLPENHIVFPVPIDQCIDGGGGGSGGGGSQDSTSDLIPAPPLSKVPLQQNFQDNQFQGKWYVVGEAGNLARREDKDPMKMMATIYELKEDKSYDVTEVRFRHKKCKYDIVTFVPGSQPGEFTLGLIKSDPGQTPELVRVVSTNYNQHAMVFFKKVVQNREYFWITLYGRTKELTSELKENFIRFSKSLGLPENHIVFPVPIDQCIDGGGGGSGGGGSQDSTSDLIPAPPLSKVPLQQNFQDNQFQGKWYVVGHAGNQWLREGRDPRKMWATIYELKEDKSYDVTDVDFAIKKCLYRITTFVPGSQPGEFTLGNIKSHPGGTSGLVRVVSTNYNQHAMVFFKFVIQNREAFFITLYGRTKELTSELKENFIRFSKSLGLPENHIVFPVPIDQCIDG

[2] = target: T2, hNGAL (human lipocalin 2, parent wild type SEQ ID NO: 1) mutein SEQ ID NO: 62 (Homo sapiens, UniProt P80188, A60Q/C107S/D65G/D97L/I61W/K145F/K154F/K66R/K93I/L123G/L56H/L90D/N85D/Q69R/R101T/R92A/S147I/S88D/W99R/Y120H/Y126G/Y152A/Y72W); assay: Surface plasmon resonance (Biacore T200), CM5 chip; assay type: binding; conditions: SPR, high concentrations (≥1 μM)
T2 construct: made in house
Procedure: Subsequently, 5 μg/mL of mutein or the negative control solution in 10 mM acetate pH 4.0 was applied at a flow rate of 10 μl/min until a high immobilization level of approximately 2000 RU was achieved. Residual activated groups were quenched with ethanolamine. The reference channels were treated with EDC/NHS following ethanolamine (blank immobilization).
The binding assay was carried out with a contact time of 180 s, dissociation times of 1200-1800 s and applying a flow rate of 30 μl/min. Measurements were performed at 25° C. Regeneration of the immobilized mutein surface was achieved by three consecutive injections of 10 mM Gly-HCl pH 1.5 (120 s) followed by an extra wash with running buffer and a stabilization period. Data were evaluated with Biacore T200 Evaluation software (V 1.0). Double referencing was used. The 1:1 Binding model was used to fit the raw data.
Subsequently, 5 μg/mL of mutein or the negative control solution in 10 mM acetate pH 4.0 was applied at a flow rate of 10 μl/min until a high immobilization level of approximately 2000 RU was achieved. Residual activated groups were quenched with ethanolamine. The reference channels were treated with EDC/NHS following ethanolamine (blank immobilization). […] The binding assay was carried out with a contact time of 180 s, dissociation times of 1500-1800 s and applying a flow rate of 30 μl/min. Measurements were performed at 25° C. Regeneration of the immobilized mutein surface was achieved by three consecutive injections of 10 mM Gly-HCl pH 1.5 (120 s) followed by an extra wash with running buffer and a stabilization period. Data were evaluated with Biacore T200 Evaluation software (V 1.0). Double referencing was used. The 1:1 Binding model was used to fit the raw data.

[3] = target: T3, hNGAL (human lipocalin 2, parent wild type SEQ ID NO: 1) mutein SEQ ID NO: 39 (Homo sapiens, UniProt P80188, A60R/C107S/D97A/I61W/K145T/K154E/K93L/L123P/L56F/L90N/N116R/Q48H/Q69I/R101S/R92W/S147I/S88Q/W99S/Y120I/Y126E/Y152F); conditions: solution binding ELISA
T3 construct: made in house; host or cells: E. coli
Procedure: (§1) The concentration of free (non ligand-bound) muteins was determined via a quantitative ELISA setup.
(§2) In detail, a 384-well plate suitable for fluorescence measurements (Greiner FLUOTRAC™ 600, black flat bottom, high-binding) was coated with 20 μl of Neutravidin at a concentration of 5 μg/ml in PBS overnight at 4 C. After washing, the Neutravidin-coated wells were blocked with 100 μl blocking buffer containing 0.1% Tween 20 and 2% BSA (PBS-T/BSA) for 1 h at room temperature.
(§3) The residual supernatants were discarded and 20 μl HRP-labeled anti-hNGAL antibody was added at a predetermined optimal concentration in PBS-T/BSA and incubated for 1 h at RT. […] After washing, 20 μl fluorogenic HRP substrate (QuantaBlu, Thermo) was added to each well, and the reaction was allowed to proceed for 15 to 60 minutes. The fluorescence intensity of every well on the plate was read using a fluorescence microplate reader (Tecan or Molecular Devices). […] Curve fitting was performed using GraphPad Prism 4 software.

[4] = target: T4, hNGAL (human lipocalin 2, parent wild type SEQ ID NO: 1) mutein SEQ ID NO: 45 (Homo sapiens, UniProt P80188, A60L/C107S/D97K/I61A/K154W/K93H/L123Q/L56E/L90R/N116L/Q48H/Q69M/R101V/S147V/S88E/W99D/Y120D/Y126E/Y72M); assay: Solution binding ELISA
T4 construct: made in house; host or cells: E. coli
Procedure: as §1, §2, §3

[5] = target: T5, hNGAL (human lipocalin 2, parent wild type SEQ ID NO: 1) mutein SEQ ID NO: 43 (Homo sapiens, UniProt P80188, A60L/C107S/D97K/I61A/K154W/K93Q/L123Q/L56E/L90R/N116L/Q48H/Q69M/R101V/S147V/S88E/W99D/Y120D/Y126E/Y72M); assay: Solution binding ELISA
T5 construct: made in house; host or cells: E. coli
Procedure: as §1, §2, §3

[6] = target: T6, hNGAL (human lipocalin 2, parent wild type SEQ ID NO: 1) mutein SEQ ID NO: 48 (Homo sapiens, UniProt P80188, A60L/C107S/D67N/D97K/I61A/K154W/K93H/L123Q/L56E/L90R/N116L/Q48H/Q69M/R101V/S125P/S147V/S88E/T165P/W99D/Y120D/Y126E/Y72M); assay: Solution binding ELISA
T6 construct: made in house; host or cells: E. coli
Procedure: as §1, §2, §3

[7] = target: T7, Fusion molecule SEQ ID NO: 134 (hNGAL muteins SEQ ID NOs: 36, 16, 53 and 62) (Homo sapiens, UniProt P80188, A60T/C107S/D97H, form not given/K145I/K154W/K93R/L123T/L56V/L90R/N85D/Q69G/R101D/R92I/S147R/S88D/T74A/W99Y/Y126Q/Y152I/Y72N); assay: Solution binding ELISA; conditions: binding to target in solution, tracer 0.1 nM, Table 11
T7 construct: made in house
T7 sequence (P80188 with tags, fused parts or gaps with the stated changes, form open): as above

[8] = target: T8, hNGAL (human lipocalin 2, parent wild type SEQ ID NO: 1) mutein SEQ ID NO: 47 (Homo sapiens, UniProt P80188, A60L/C107S/D97K/I61A/K154W/K93H/L123Q/L56E/L62R/L90R/N116L/Q48H/Q69M/R101V/S125P/S147V/S88E/W99D/Y120D/Y126E/Y72M); assay: Solution binding ELISA
T8 construct: made in house; host or cells: E. coli
Procedure: as §1, §2, §3

[9] = target: T9, hNGAL (human lipocalin 2, parent wild type SEQ ID NO: 1) mutein SEQ ID NO: 53 (Homo sapiens, UniProt P80188, A60L/C107S/D97K/I61A/K154W/K93H/L123Q/L56E/L62R/L90R/N116L/N85D/Q69M/R101V/S125P/S147V/S88E/W99D/Y120D/Y126E/Y72M); assay: Surface plasmon resonance (Biacore T200); assay type: binding; conditions: SPR, 25° C., Table 2C
T9 construct: made in house; host or cells: E. coli
Procedure: In a Surface Plasmon Resonance (SPR) based assay a Biacore T200 instrument (GE Healthcare) was used to measure the binding affinity of muteins to pyoverdine I succinyl, -succinamide, -α-ketoglutaryl with complexed iron ion or to pyoverdine II succinyl, -succinamide, -α-ketoglutaryl with complexed iron ion or to pyoverdine III succinyl, -succinamide, -α-ketoglutaryl with complexed iron ion. Muteins selected for binding to pyoverdines and negative control (SEQ ID NO: 64) were biotinylated for 2 h at room temperature applying an appropriate excess of EZ-Link NHS-PEG4-Biotin (Thermo, Cat #21329) followed by separation of non-reacted Biotin using a Zebra Spin Desalting Plate (Thermo, Cat #21329) according to the manufactures instructions.
In the SPR affinity assay, biotinylated muteins and negative control were captured on a sensor chip CAP using the Biotin CAPture Kit (GE Healthcare): Sensor Chip CAP is pre-immobilized with an ssDNA oligo. Undiluted Biotin CAPture Reagent (streptavidin conjugated with the complementary ss-DNA oligo) was applied at a flow rate of 2 μl/min for 300 s. Subsequently, 1 μg/ml to 100 μg/mL of biotinylated muteins or negative control were applied for 300 s at a flow rate of 5 μl/min. The reference channel was loaded with Biotin CAPture Reagent only.
Applying a flow rate of 30 μl/min, a single cycle or multi cycle kinetics approach was used with a sample contact time of 120-180 s and a dissociation time of 900-2400 s. […] After ligand immobilization, for analysis using single cycle kinetics all 4-5 concentrations of Pvd were applied consecutively in ascending order before the dissociation was monitored. For analysis using multi cycle kinetics 4 dilutions of Pvd were applied, each followed a dissociation phase. All measurements were performed at 25° C. […] Data were evaluated with Biacore T200 Evaluation software (V 1.0). Double referencing was used. A 1:1 Binding model was used to fit the raw data.
In a surface plasmon resonance (SPR) based assay, a Biacore T200 instrument (GE Healthcare) was used to measure the binding affinity of individual muteins or fusion molecules to pyoverdine siderophores (to pyoverdine I succinyl, -succinamide, -α-ketoglutaryl with complexed iron ion or to pyoverdine II succinyl, -succinamide, -α-ketoglutaryl with complexed iron ion or to pyoverdine III succinyl, -succinamide, -α-ketoglutaryl with complexed iron ion). To this end, muteins selected for binding to pyoverdines (SEQ ID NOs: 16, 36, 53), a fusion molecule (SEQ ID NO: 134) and a negative control (SEQ ID NO: 64) were biotinylated for 2 h at room temperature applying an appropriate excess of EZ-Link NHS-PEG4-Biotin (Thermo, Cat #21329) followed by separation of non-reacted biotin using a Zebra Spin Desalting Plate (Thermo, Cat #21329) according to the manufacturer's instructions.
In the SPR affinity assay, biotinylated muteins and negative control were captured on a sensor chip CAP using the Biotin CAPture Kit (GE Healthcare), wherein the Sensor Chip CAP is pre-immobilized with an ssDNA oligo. Undiluted Biotin CAPture Reagent (streptavidin conjugated with the complementary ss-DNA oligo) was applied at a flow rate of 2 μl/min for 300 s. Subsequently, 20 μg/ml to 100 μg/mL of biotinylated muteins or fusion molecule negative control were applied for 300 s at a flow rate of 5 μl/min. The reference channel was loaded with Biotin CAPture Reagent only. To determine the binding affinity, four dilutions of the respective Pvd were prepared in HBS-EP+ buffer (GE Healthcare) and applied to the chip surface. Applying a flow rate of 30 μl/min, a single cycle kinetics approach was used with a sample contact time of 180 s and a dissociation time of 1800-2400 s. […] After ligand immobilization, the four concentrations of Pvd were applied consecutively in ascending order before the dissociation was monitored. All measurements were performed at 25° C. […] Data were evaluated with Biacore T200 Evaluation software (V 1.0). Double referencing was preformed.

[10] = target: T10, hNGAL (human lipocalin 2, parent wild type SEQ ID NO: 1) mutein SEQ ID NO: 50 (Homo sapiens, UniProt P80188, A60L/C107S/D97K/I61A/K154W/K93H/L123Q/L56E/L62R/L90R/N116L/N85D/Q48H/Q69M/R101V/S125P/S147V/S88E/W99D/Y120D/Y126E/Y72M); assay: Solution binding ELISA; conditions: Example 5
T10 construct: made in house; host or cells: E. coli
Procedure: as §1, §2, §3

[11] = target: T11, hNGAL (human lipocalin 2, parent wild type SEQ ID NO: 1) mutein SEQ ID NO: 46 (deletion of G-N-I-K, positions 95-98) (Homo sapiens, UniProt P80188, A60L/C107S/D97Q/DEL115-118/I61A/K154W/K93Y/L123Q/L56E/L90R/Q48H/Q69K/R101V/S147V/S88E/W99D/Y120E/Y126E/Y152F/Y72M); assay: Solution binding ELISA
T11 construct: made in house; host or cells: E. coli
Procedure: as §1, §2, §3

[12] = target: T12, hNGAL (human lipocalin 2, parent wild type SEQ ID NO: 1) mutein SEQ ID NO: 44 (Homo sapiens, UniProt P80188, A60L/C107S/D97K/I61T/K154W/K93R/L123Q/L56E/L90R/N116V/Q48H/Q69M/R101V/S147V/S88E/W99D/Y120D/Y126E/Y72M); assay: Solution binding ELISA
T12 construct: made in house; host or cells: E. coli
Procedure: as §1, §2, §3

[13] = target: T13, hNGAL (human lipocalin 2, parent wild type SEQ ID NO: 1) mutein SEQ ID NO: 42 (Homo sapiens, UniProt P80188, A60L/C107S/D97Q/I61A/K154W/K93H/L123Q/L56E/L90R/N116L/Q48H/Q69K/R101A/S147V/S88E/W99D/Y120D/Y126E/Y152F/Y72M); assay: Solution binding ELISA
T13 construct: made in house; host or cells: E. coli
Procedure: as §1, §2, §3

[14] = target: T9, hNGAL (human lipocalin 2, parent wild type SEQ ID NO: 1) mutein SEQ ID NO: 53; assay: Solution binding ELISA; conditions: Example 5
Procedure: as §1, §2, §3
The concentration of free (non ligand-bound) mutein or fusion molecule construct was determined via a quantitative ELISA setup.
In detail, a 384-well plate suitable for fluorescence measurements (Greiner FLUOTRAC™ 600, black flat bottom, high-binding) was coated with 20 μl of Neutravidin at a concentration of 5 μg/ml in PBS overnight at 4° C. After washing, the Neutravidin-coated wells were blocked with 100 μl blocking buffer containing 0.1% Tween 20 and 2% BSA (PBS-T/BSA) for 1 h at room temperature.
The residual supernatants were discarded and 20 μl HRP-labeled anti-hNGAL antibody was added at a predetermined optimal concentration in PBS-T/BSA and incubated for 1 h at RT. […] After washing, 20 μl fluorogenic HRP substrate (QuantaBlu, Thermo) was added to each well, and the reaction was allowed to proceed for 15 to 60 minutes. The fluorescence intensity of every well on the plate was read using a fluorescence microplate reader (Tecan or Molecular Devices). […] IC50 values were fitted by nonlinear regression with a single-sites binding model. Curve fitting was performed using GraphPad Prism 4 software.

[15] = target: hNGAL (human lipocalin 2), wild type, SEQ ID NO: 1 (Homo sapiens, UniProt P80188); conditions: cited from earlier work
[16] = target: lipocalin negative control SEQ ID NO: 64 (Homo sapiens, UniProt P80188, C107S/Q48H); assay: Surface plasmon resonance (Biacore T200); assay type: binding; conditions: Biacore, Example 18
lipocalin negative control SEQ ID NO: 64, sequence (P80188 21-198 Q48H/C107S): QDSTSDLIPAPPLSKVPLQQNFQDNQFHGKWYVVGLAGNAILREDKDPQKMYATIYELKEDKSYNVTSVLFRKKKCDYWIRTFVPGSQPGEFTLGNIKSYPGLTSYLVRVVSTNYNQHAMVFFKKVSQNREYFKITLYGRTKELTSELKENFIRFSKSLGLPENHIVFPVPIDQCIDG

T10 sequence (P80188 other isoform, or with tags, fused parts or gaps with the stated changes): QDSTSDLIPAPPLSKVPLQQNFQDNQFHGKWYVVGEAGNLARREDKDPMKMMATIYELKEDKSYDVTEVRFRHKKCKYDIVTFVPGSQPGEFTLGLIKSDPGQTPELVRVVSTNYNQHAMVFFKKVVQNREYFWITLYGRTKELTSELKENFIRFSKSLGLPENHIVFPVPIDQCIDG
T4 sequence (P80188 other isoform, or with tags, fused parts or gaps with the stated changes): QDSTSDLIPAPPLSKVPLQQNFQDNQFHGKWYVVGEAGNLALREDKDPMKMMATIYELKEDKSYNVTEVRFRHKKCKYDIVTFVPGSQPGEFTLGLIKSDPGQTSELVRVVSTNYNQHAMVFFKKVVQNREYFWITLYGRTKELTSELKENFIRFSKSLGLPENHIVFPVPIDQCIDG
T5 sequence (P80188 other isoform, or with tags, fused parts or gaps with the stated changes): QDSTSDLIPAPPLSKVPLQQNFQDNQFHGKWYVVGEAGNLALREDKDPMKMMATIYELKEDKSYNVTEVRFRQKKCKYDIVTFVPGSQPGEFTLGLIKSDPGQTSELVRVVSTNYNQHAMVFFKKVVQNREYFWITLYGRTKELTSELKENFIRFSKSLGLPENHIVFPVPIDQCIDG
T8 sequence (P80188 other isoform, or with tags, fused parts or gaps with the stated changes): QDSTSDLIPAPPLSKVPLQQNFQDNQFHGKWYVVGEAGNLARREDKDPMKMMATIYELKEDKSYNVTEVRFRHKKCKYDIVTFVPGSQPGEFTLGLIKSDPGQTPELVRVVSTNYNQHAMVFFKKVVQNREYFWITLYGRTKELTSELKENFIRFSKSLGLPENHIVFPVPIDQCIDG
T13 sequence (P80188 other isoform, or with tags, fused parts or gaps with the stated changes): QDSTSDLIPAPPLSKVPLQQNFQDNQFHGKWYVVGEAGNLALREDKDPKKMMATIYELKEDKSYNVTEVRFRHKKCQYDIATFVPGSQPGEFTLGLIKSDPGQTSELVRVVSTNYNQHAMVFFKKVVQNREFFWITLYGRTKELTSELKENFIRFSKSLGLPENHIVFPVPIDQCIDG
hNGAL (human lipocalin 2), wild type, SEQ ID NO: 1, sequence (P80188 21-198): as the sequence (P80188 21-198 Q48H/C107S) above, with H28Q, S87C counted along it
T11 sequence (P80188 other isoform, or with tags, fused parts or gaps with the stated changes): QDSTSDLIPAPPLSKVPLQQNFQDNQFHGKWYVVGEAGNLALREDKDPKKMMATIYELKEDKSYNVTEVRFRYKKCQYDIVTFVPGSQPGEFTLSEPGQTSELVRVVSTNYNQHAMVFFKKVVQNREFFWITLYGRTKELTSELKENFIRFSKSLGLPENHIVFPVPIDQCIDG
T12 sequence (P80188 other isoform, or with tags, fused parts or gaps with the stated changes): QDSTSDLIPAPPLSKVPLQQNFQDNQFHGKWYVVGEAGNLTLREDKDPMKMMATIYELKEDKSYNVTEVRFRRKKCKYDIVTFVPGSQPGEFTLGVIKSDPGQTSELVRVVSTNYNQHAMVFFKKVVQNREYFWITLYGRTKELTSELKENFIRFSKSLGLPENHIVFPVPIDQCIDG
T9 sequence (P80188 21-198 with the stated changes): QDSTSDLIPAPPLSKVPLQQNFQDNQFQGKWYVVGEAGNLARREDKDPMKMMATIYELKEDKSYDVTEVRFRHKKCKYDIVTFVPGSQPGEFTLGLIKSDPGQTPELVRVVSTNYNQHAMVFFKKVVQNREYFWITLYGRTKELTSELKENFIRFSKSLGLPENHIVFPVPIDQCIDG
T6 sequence (P80188 other isoform, or with tags, fused parts or gaps with the stated changes): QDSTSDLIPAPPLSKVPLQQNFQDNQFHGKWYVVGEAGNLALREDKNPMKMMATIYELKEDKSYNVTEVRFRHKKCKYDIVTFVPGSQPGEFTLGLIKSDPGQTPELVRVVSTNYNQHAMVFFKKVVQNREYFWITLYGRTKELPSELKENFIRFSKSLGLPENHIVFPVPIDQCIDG
T3 sequence (P80188 other isoform, or with tags, fused parts or gaps with the stated changes): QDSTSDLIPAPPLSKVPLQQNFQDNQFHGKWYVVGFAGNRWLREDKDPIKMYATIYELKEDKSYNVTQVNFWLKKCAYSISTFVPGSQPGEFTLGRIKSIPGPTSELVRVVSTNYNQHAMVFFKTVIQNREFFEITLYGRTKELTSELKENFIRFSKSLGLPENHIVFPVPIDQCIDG
T2 sequence (P80188 21-198 with the stated changes): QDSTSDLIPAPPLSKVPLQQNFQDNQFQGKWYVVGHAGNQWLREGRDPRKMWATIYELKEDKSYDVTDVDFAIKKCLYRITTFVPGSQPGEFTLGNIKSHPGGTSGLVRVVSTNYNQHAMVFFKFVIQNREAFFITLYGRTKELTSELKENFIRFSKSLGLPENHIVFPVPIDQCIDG

Compound	IC50 [3] [nM]	Kd ([1]; Biacore, 25° C., Table 13) [nM]	IC50 [4] [nM]	IC50 [5] [nM]	IC50 [6] [nM]	IC50 [7] [nM]	IC50 [8] [nM]	IC50 [10] [nM]	IC50 [11] [nM]	IC50 [12] [nM]	IC50 [13] [nM]	IC50 [14] [nM]	binding [15]	other results
CC(=O)N(O)CCCCCNC(=O)CCC(=O)N(O)CCCCCNC(=O)CCC(=O)N(O)CCCCCN [Desferoxamin, desferoxamine]														KD ([1]; Biacore, 25° C., Table 13): no bdg; binding ([1]; high concentrations (≥1 μM)): absence of binding; binding [2]: absence of binding
NC(=O)CC[C@H](NC(=O)[C@H](CCCN([O-])C=O)NC(=O)[C@@H]1CCN=C([C@@H](CO)NC(=O)[C@@H]2CCNc3c(NC(=O)C(=O)CCC(=O)O)cc4cc([O-])c([O-])cc4[n+]32)N1)C(=O)N[C@H](CCC(N)=O)C(=O)N[C@H](CCCN([O-])C=O)C(=O)NCC(=O)O.[Fe+3] [Pvd III aKG (+Fe), Pvd type III α-ketoglutaryl]	23	1.04	1.5	1.4	0.95	0.58	0.82	0.95	1.02	0.93	78	0.54		Kd [9]: 3.6 nM; koff [9]: 0.00014 s⁻¹; kon [9]: 38800 M⁻¹ s⁻¹
NC(=O)CC[C@H](NC(=O)[C@H](CCCN(O)C=O)NC(=O)[C@@H]1CCN=C([C@@H](CO)NC(=O)[C@@H]2CCNc3c(NC(=O)C(=O)CCC(=O)O)cc4cc(O)c(O)cc4[n+]32)N1)C(=O)N[C@H](CCC(N)=O)C(=O)N[C@H](CCCN(O)C=O)C(=O)NCC(=O)O [Pvd III aKG (−Fe), Pvd type III α-ketoglutaryl]	23	18.7	1.7	1.9	0.64	0.7	0.58	0.82	1.2	1.1	69	0.33		
NC(=O)CCC(=O)Nc1cc2cc([O-])c([O-])cc2[n+]2c1NCC[C@H]2C(=O)N[C@H](CO)C1=NCC[C@@H](C(=O)N[C@@H](CCCN([O-])C=O)C(=O)N[C@@H](CCC(N)=O)C(=O)N[C@H](CCC(N)=O)C(=O)N[C@H](CCCN([O-])C=O)C(=O)NCC(=O)O)N1.[Fe+3] [Pvd III sa (+Fe), Pvd type III succinamide]	147	0.27	0.43	0.25	0.22	0.31	0.3	0.35	0.3	0.26	15	0.25		Kd [9]: 0.58 nM; koff [9]: 3.9e-05 s⁻¹; kon [9]: 67300 M⁻¹ s⁻¹
NC(=O)CCC(=O)Nc1cc2cc(O)c(O)cc2[n+]2c1NCC[C@H]2C(=O)N[C@H](CO)C1=NCC[C@@H](C(=O)N[C@@H](CCCN(O)C=O)C(=O)N[C@@H](CCC(N)=O)C(=O)N[C@H](CCC(N)=O)C(=O)N[C@H](CCCN(O)C=O)C(=O)NCC(=O)O)N1 [Pvd III sa (−Fe), Pvd type III succinamide]	94	1.65	0.46	0.46	0.24	0.27	0.28	0.37	0.3	0.21	7.2	0.63		
O=C(N[C@H]1COC(=O)[C@@H](NC(=O)c2cccc(O)c2O)COC(=O)[C@@H](NC(=O)c2cccc(O)c2O)COC1=O)c1cccc(O)c1O.[Fe+3] [enterobactin]													high affinity	
CN1[C@@H]([C@H]2CSC(c3ccccc3O)=N2)SC[C@H]1C(=O)O [pyochelin]													does not bind	binding ([1]; His-tagged fusion captured via Ni-NTA): clearly detectable; binding [16]: did not show binding
pyoverdine													does not bind	binding [2]: absence of binding; binding [16]: did not show binding
